Data published in the supplement of paper PMC10307832.

Tests used:
Assay in all cases: relative viability (nuclei count vs DMSO), 5 days (fraction); higher = more cells survive
201T = tested on: 201T
Procedure, shortened: (§1)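 Dosing by pin tool came one day after lung cancer cell lines were seeded in 1536-well plates, using either one drug or a fixed anchor-drug dose plus five library-drug doses (not always all listed) in √10 steps. After 5 days, nuclei were counted on 4× images. Relative viability is treated-well nuclei count divided by vehicle-well nuclei count, and values are medians of duplicate plates.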

ABC-1 = tested on: ABC-1
Procedure, shortened: as §1

BEN = tested on: BEN
Procedure, shortened: as §1

CAL-12T = tested on: CAL-12T
Procedure, shortened: as §1

COR-L 105 = tested on: COR-L 105
Procedure, shortened: as §1

EKVX = tested on: EKVX
Procedure, shortened: as §1

HARA = tested on: HARA
Procedure, shortened: as §1

HCC-366 = tested on: HCC-366
Procedure, shortened: as §1

LK-2 = tested on: LK-2
Procedure, shortened: as §1

LOU-NH91 = tested on: LOU-NH91
Procedure, shortened: as §1

NCI-H1437 = tested on: NCI-H1437
Procedure, shortened: as §1

NCI-H1650 = tested on: NCI-H1650
Procedure, shortened: as §1

NCI-H1666 = tested on: NCI-H1666
Procedure, shortened: as §1

NCI-H2009 = tested on: NCI-H2009
Procedure, shortened: as §1

NCI-H2170 = tested on: NCI-H2170
Procedure, shortened: as §1

NCI-H3122 = tested on: NCI-H3122
Procedure, shortened: as §1

NCI-H441 = tested on: NCI-H441
Procedure, shortened: as §1

NCI-H460 = tested on: NCI-H460
Procedure, shortened: as §1

NCI-H661 = tested on: NCI-H661
Procedure, shortened: as §1

NCI-H727 = tested on: NCI-H727
Procedure, shortened: as §1

PC-14 = tested on: PC-14
Procedure, shortened: as §1

SW 900 = tested on: SW 900
Procedure, shortened: as §1

O=c1cc(-c2cccc3c2Sc2ccccc2S3)oc(N2CCOCC2)c1 + N=C(N)NC(=N)NCCc1ccccc1 [Phenformin] (partner 250 µM)
relative viability (201T; first compound 0.08 µM): 0.445 | relative viability (201T; first compound 0.253 µM): 0.545 | relative viability (201T; first compound 0.8 µM): 0.423 | relative viability (201T; first compound 2.53 µM): 0.427 | relative viability (201T; first compound 8 µM): 0.498 | relative viability (ABC-1; first compound 0.08 µM): 0.228 | relative viability (ABC-1; first compound 0.253 µM): 0.23 | relative viability (ABC-1; first compound 0.8 µM): 0.23 | relative viability (ABC-1; first compound 2.53 µM): 0.234 | relative viability (ABC-1; first compound 8 µM): 0.277 | relative viability (BEN; first compound 0.08 µM): 0.258 | relative viability (BEN; first compound 0.253 µM): 0.306 | relative viability (BEN; first compound 0.8 µM): 0.248 | relative viability (BEN; first compound 2.53 µM): 0.217 | relative viability (BEN; first compound 8 µM): 0.3 | relative viability (CAL-12T; first compound 0.08 µM): 0.534 | relative viability (CAL-12T; first compound 0.253 µM): 0.603 | relative viability (CAL-12T; first compound 0.8 µM): 0.597 | relative viability (CAL-12T; first compound 2.53 µM): 0.514 | relative viability (CAL-12T; first compound 8 µM): 0.487 | relative viability (COR-L 105; first compound 0.08 µM): 0.454 | relative viability (COR-L 105; first compound 0.253 µM): 0.471 | relative viability (COR-L 105; first compound 0.8 µM): 0.466 | relative viability (COR-L 105; first compound 2.53 µM): 0.507 | relative viability (COR-L 105; first compound 8 µM): 0.47 | relative viability (EKVX; first compound 0.08 µM): 0.191 | relative viability (EKVX; first compound 0.253 µM): 0.237 | relative viability (EKVX; first compound 0.8 µM): 0.218 | relative viability (EKVX; first compound 2.53 µM): 0.209 | relative viability (EKVX; first compound 8 µM): 0.265 | relative viability (HARA; first compound 0.08 µM): 0.452 | relative viability (HARA; first compound 0.253 µM): 0.592 | relative viability (HARA; first compound 0.8 µM): 0.435 | relative viability (HARA; first compound 2.53 µM): 0.348 | relative viability (HARA; first compound 8 µM): 0.702 | relative viability (HCC-366; first compound 0.08 µM): 0.588 | relative viability (HCC-366; first compound 0.253 µM): 0.727 | relative viability (HCC-366; first compound 0.8 µM): 0.71 | relative viability (HCC-366; first compound 2.53 µM): 0.549 | relative viability (HCC-366; first compound 8 µM): 0.632 | relative viability (LK-2; first compound 0.08 µM): 0.582 | relative viability (LK-2; first compound 0.253 µM): 0.551 | relative viability (LK-2; first compound 0.8 µM): 0.524 | relative viability (LK-2; first compound 2.53 µM): 0.29 | relative viability (LK-2; first compound 8 µM): 0.381 | relative viability (LOU-NH91; first compound 0.08 µM): 0.611 | relative viability (LOU-NH91; first compound 0.253 µM): 0.675 | relative viability (LOU-NH91; first compound 0.8 µM): 0.658 | relative viability (LOU-NH91; first compound 2.53 µM): 0.6 | relative viability (LOU-NH91; first compound 8 µM): 0.741 | relative viability (NCI-H1437; first compound 0.08 µM): 0.271 | relative viability (NCI-H1437; first compound 0.253 µM): 0.683 | relative viability (NCI-H1437; first compound 0.8 µM): 0.238 | relative viability (NCI-H1437; first compound 2.53 µM): 0.277 | relative viability (NCI-H1437; first compound 8 µM): 0.343 | relative viability (NCI-H1650; first compound 0.08 µM): 0.379 | relative viability (NCI-H1650; first compound 0.253 µM): 0.561 | relative viability (NCI-H1650; first compound 0.8 µM): 0.434 | relative viability (NCI-H1650; first compound 2.53 µM): 0.263 | relative viability (NCI-H1650; first compound 8 µM): 0.365 | relative viability (NCI-H1666; first compound 0.08 µM): 0.601 | relative viability (NCI-H1666; first compound 0.253 µM): 0.644 | relative viability (NCI-H1666; first compound 0.8 µM): 0.578 | relative viability (NCI-H1666; first compound 2.53 µM): 0.572 | relative viability (NCI-H1666; first compound 8 µM): 0.585 | relative viability (NCI-H2009; first compound 0.08 µM): 0.481 | relative viability (NCI-H2009; first compound 0.253 µM): 0.545 | relative viability (NCI-H2009; first compound 0.8 µM): 0.522 | relative viability (NCI-H2009; first compound 2.53 µM): 0.445 | relative viability (NCI-H2009; first compound 8 µM): 0.446 | relative viability (NCI-H2170; first compound 0.08 µM): 0.427 | relative viability (NCI-H2170; first compound 0.253 µM): 0.444 | relative viability (NCI-H2170; first compound 0.8 µM): 0.431 | relative viability (NCI-H2170; first compound 2.53 µM): 0.319 | relative viability (NCI-H2170; first compound 8 µM): 0.444 | relative viability (NCI-H3122; first compound 0.08 µM): 0.38 | relative viability (NCI-H3122; first compound 0.253 µM): 0.418 | relative viability (NCI-H3122; first compound 0.8 µM): 0.376 | relative viability (NCI-H3122; first compound 2.53 µM): 0.36 | relative viability (NCI-H3122; first compound 8 µM): 0.398 | relative viability (NCI-H441; first compound 0.08 µM): 0.854 | relative viability (NCI-H441; first compound 0.253 µM): 1.2 | relative viability (NCI-H441; first compound 0.8 µM): 0.895 | relative viability (NCI-H441; first compound 2.53 µM): 0.903 | relative viability (NCI-H441; first compound 8 µM): 0.904 | relative viability (NCI-H460; first compound 0.08 µM): 0.535 | relative viability (NCI-H460; first compound 0.253 µM): 0.549 | relative viability (NCI-H460; first compound 0.8 µM): 0.571 | relative viability (NCI-H460; first compound 2.53 µM): 0.525 | relative viability (NCI-H460; first compound 8 µM): 0.531 | relative viability (NCI-H661; first compound 0.08 µM): 0.269 | relative viability (NCI-H661; first compound 0.253 µM): 0.26 | relative viability (NCI-H661; first compound 0.8 µM): 0.271 | relative viability (NCI-H661; first compound 2.53 µM): 0.267 | relative viability (NCI-H661; first compound 8 µM): 0.259 | relative viability (NCI-H727; first compound 0.08 µM): 0.503 | relative viability (NCI-H727; first compound 0.253 µM): 0.591 | relative viability (NCI-H727; first compound 0.8 µM): 0.411 | relative viability (NCI-H727; first compound 2.53 µM): 0.571 | relative viability (NCI-H727; first compound 8 µM): 0.525 | relative viability (PC-14; first compound 0.08 µM): 0.553 | relative viability (PC-14; first compound 0.253 µM): 0.479 | relative viability (PC-14; first compound 0.8 µM): 0.54 | relative viability (PC-14; first compound 8 µM): 0.746 | relative viability (SW 900; first compound 0.08 µM): 0.645 | relative viability (SW 900; first compound 0.253 µM): 0.627 | relative viability (SW 900; first compound 0.8 µM): 0.441 | relative viability (SW 900; first compound 2.53 µM): 0.567 | relative viability (SW 900; first compound 8 µM): 0.597
